Measured values as given in patent US20250032476A1, “ALPHA-2A ADRENERGIC RECEPTOR MODULATORS AND USES THEREOF” (The Regents of the University of California, priority 2021, published 2025).
Like-named read-outs stand apart in the source and are kept apart here.

What was measured:
[1] = target: T1, ALPHA-2A ADRENERGIC RECEPTOR (Homo sapiens (Human), UniProt P08913); test: Gi recruitment (G protein); assay type: cell-based; conditions: for Emax: read-out: G protein Emax (%); for functional classification (agonist / weak agonist): Table 6, result in words
T1 sequence (P08913 whole entry): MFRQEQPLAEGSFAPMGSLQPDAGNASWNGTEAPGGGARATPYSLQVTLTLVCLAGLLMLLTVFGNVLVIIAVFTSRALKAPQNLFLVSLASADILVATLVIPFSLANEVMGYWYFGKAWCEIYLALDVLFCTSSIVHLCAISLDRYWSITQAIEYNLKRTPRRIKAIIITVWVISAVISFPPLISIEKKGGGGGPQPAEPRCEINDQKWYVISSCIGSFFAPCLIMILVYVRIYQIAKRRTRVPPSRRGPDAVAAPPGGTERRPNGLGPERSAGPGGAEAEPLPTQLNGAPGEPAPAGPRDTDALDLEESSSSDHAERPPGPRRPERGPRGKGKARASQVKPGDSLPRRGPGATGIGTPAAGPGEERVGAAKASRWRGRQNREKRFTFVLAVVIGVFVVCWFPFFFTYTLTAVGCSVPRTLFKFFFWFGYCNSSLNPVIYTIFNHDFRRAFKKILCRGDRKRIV

[2] = target: T1, ALPHA-2A ADRENERGIC RECEPTOR; test: Arrestin recruitment; assay type: cell-based
[3] = Pharmacokinetics in mice (plasma, brain, CSF); assay type: in vivo; conditions: for AUC / Cmax: mouse, plasma
Protocol: Pharmacokinetics. Pharmacokinetic experiments were performed by Bienta (Enamine Biology Services) in accordance with Enamine pharmacokinetic study protocols and Institutional Animal Care and Use Guidelines (protocol number 1-2/2020). […] In each compound study, nine time points (5, 15, 30, 60, 120, 240, 360, 480 and 1440 min) were collected, each of the time point treatment group included 3 animals. There was also a control group of one animal. In the ‘9087, ‘7075, ‘4622 studies, male C57BL/6N mice were used, for PS75 CD-1 mice, and for ‘2998 male Balb/cAnN mice. For all compound studies the animals were randomly assigned to the treatment groups before the pharmacokinetic study; all animals were fasted for 4 h before dosing. For injections, ‘9087 was dissolved in Captisol—water (40%:60%, w/v), ‘4622 was dissolved in a 20% Kolliphor HS—physiological saline solution, and ‘7075, PS75, and ‘2998 were dissolved in a 20% 2-HPBCD—aqueous solution. The batches of working formulations were prepared 10 minutes prior to the in vivo study.
(§1) Mice were injected i.p. with 2,2,2-tribromoethanol at 150 mg/kg prior to drawing CSF and blood. CSF was collected under a stereomicroscope from cisterna magna using 1 mL syringes. Blood collection was performed from the orbital sinus in microtainers containing K3EDTA. Animals were sacrificed by cervical dislocation after the blood samples collection. Blood samples were centrifuged 10 min at 3000 rpm. Brain samples (right lobe) were weighed and transferred into 1.5 ml tubes. All samples were immediately processed, flash-frozen and stored at −70° C. until subsequent analysis.
Plasma samples (40 μL) were mixed with 200 μL of internal standard (IS) solution. After mixing by pipetting and centrifuging for 4 min at 6000 rpm, 4 μL of each supernatant was injected into the LC-MS/MS system. Solutions of internal standards were used to quantify compounds in the plasma samples. […] After this, the samples were centrifuged for 4 min at 14,000 rpm, and supernatant was injected into LC-MS/MS system. CSF samples (2 μL) were mixed with 40 μL of an internal stock solution. After mixing by pipetting and centrifuging for 4 min at 6,000 rpm, 5 μL of each supernatant was injected into LC-MS/MS system.
(§2) Analyses of plasma, brain and CSF samples were conducted at Enamine/Bienta. The concentrations of compounds in plasma and brain samples were determined using high performance liquid chromatography/tandem mass spectrometry (HPLC-MS/MS). Data acquisition and system control was performed using Analyst 1.5.2 software (AB Sciex, Canada). […] Pharmacokinetic data analysis was performed using noncompartmental, bolus injection or extravascular input analysis models in WinNonlin 5.2 (PharSight).
as §1, with “mL” for “ml”
as §2
Additional pharmacokinetic experiments were performed by Sai Life Sciences (Hyderabad, India) in accordance with the Sai Study Protocol SAIDMPK/PK-22-04-0340. […] Testing was done in C57BL/6 mice.

human α2AAR = human α2AAR (Homo sapiens (Human), UniProt P08913); test: Gαi G protein activation, BRET biosensor assay in HEK293T cells; conditions: HEK-293T, read-out: Gαi Emax
human α2AAR, sequence (P08913 whole entry): as above
Protocol: Bioluminescense resonance energy transfer. G protein mediated activation of human α2AAR and D2long was monitored with Gαi1-RLucII (71, 72) together with Gβ1 and Gγ1-GFP10. Arrestin recruitment was performed by enhanced bystander BRET using CAAX-rGFP and β-arrestin-2-RLucII as biosensors (all biosensors are provided from M. Bouvier, Université de Montréal, Canada) (71, 73) in the presence of GRK2 as described (66, 74). In brief, HEK293T cells were transfected with a total amount of 3.3 μg DNA per 10^6 cells using linear polyethyleneimine (PEI, Polysciences, 3:1 PEI:DNA ratio) and transferred into 96-well half-area plates (Greiner, Frickenhausen, Germany) at a density of 10,000 cells per well and incubated for 48 hrs. Medium was exchanged with PBS (Hank's balanced salt solution) and cells were stimulated with ligands at 37° C. for 10 min for Gαi stimulation or arrestin recruitment, respectively.

[4] = Gi recruitment, Tables 7-9, read-out: G protein EC50
[5] = C57BL/6N ('9087), C57BL/6 (PS75), iv, I.V. 10 mg/kg
[6] = C57BL/6N ('9087), C57BL/6 (PS75), po, P.O. 30 mg/kg
[7] = Gi recruitment, Table 6, read-out: EC50

3-Methyl-N^1-(pyridin-2-yl)benzene-1,4-diamine [Compound 5822]
EC50 [1, 4]: 1100 nM

4-(1,2,5,6-tetrahydropyridin-3-yl)-1H-indole [PS-NN04]
G protein Emax (%) ([1]; Gi recruitment, Tables 7-9): 63%
EC50 [1, 4]: 130 nM
Arrestin Emax (%) ([2]; Tables 7-9): <10%

4-Methyl-5-(1,2,5,6-tetrahydropyridin-3-yl)-1H-pyrrolo[2,3-b]pyridine [Compound 9661]
EC50 [1, 4]: 680 nM

N#Cc1cc2[nH]ncc2cc1-c1ccc(N)nc1 [BSC2998-E02]
EC50 [1, 4]: 2900 nM
Emax ([1]; Gi recruitment, Tables 7-9): 14%
Arrestin effect at 100 μM [2]: 25% at 100 μM

CN(c1cccc(Cl)c1)c1cc(N)ccn1 [Compound 2029, N^2-(3-Chlorophenyl)-N^2-methylpyridine-2,4-diamine]
EC50 [1, 4]: 1400 nM

C1=C(c2cccc3ccccc23)CNCC1 [Compound 3461, 5-(Naphthalen-1-yl)-1,2,3,6-tetrahydropyridine]
EC50 [1, 4]: 450 nM

C1=C(c2cccc3c2CCC3)CNCC1 [Compound 3827, 5-(2,3-dihydro-1H-inden-4-yl)-1,2,3,6-tetrahydropyridine]
EC50 [1, 4]: 390 nM

Cc1ccc(Nc2ccccn2)cc1C [Compound 4472, N-(3,4-Dimethylphenyl)pyridin-2-amine]
EC50 [1, 4]: 3300 nM

Nc1ccnc(Oc2ccc(F)cc2)c1 [Compound 4783, 2-(4-Fluorophenoxy)pyridin-4-amine]
EC50 [1, 4]: 580 nM

Cc1c(-c2cccnc2N)ccc2[nH]ncc12 [Compound 5193, 3-(4-Methyl-1H-indazol-5-yl)pyridin-2-amine]
EC50 [1, 4]: 3100 nM

Cc1cc(-c2ccc3[nH]ncc3c2C)cnc1N [Compound 5649, 3-Methyl-5-(4-methyl-1H-indazol-5-yl)pyridin-2-amine]
EC50 [1, 4]: 1000 nM

CN(c1ccc(N)c(F)c1)c1ccccn1 [Compound 6254, 3-Fluoro-N^1-methyl-N^1-(pyridin-2-yl)benzene-1,4-diamine]
EC50 [1, 4]: 5400 nM

Nc1ccc(Nc2ccccn2)cc1Cl [Compound 7502, 3-Chloro-N^1-(pyridin-2-yl)benzene-1,4-diamine]
EC50 [1, 4]: 460 nM

Nc1ncccc1-c1ccc2scnc2c1 [Compound 8723, 3-(Benzo[d]thiazol-5-yl)pyridin-2-amine]
EC50 [1, 4]: 1300 nM

c1ccc2c(Nc3ccncc3)cncc2c1 [Compound 9087, N-(pyridin-4-yl)isoquinolin-4-amine]
AUC [3, 5]: 1750 ng·h/mL
Cmax [3, 5]: 2020 ng/mL
AUC [3, 6]: 8430 ng·h/mL
Cmax [3, 6]: 2720 ng/mL
AUC Brain ([3]; I.P. 10 mg/kg): 439000 ng·min/mL
AUC CSF ([3]; I.P. 10 mg/kg): 154000 ng·min/mL
Cmax Brain ([3]; I.P. 10 mg/kg): 5960 ng/mL
Cmax CSF ([3]; I.P. 10 mg/kg): 447 ng/mL
Cmax Brain ([3]; I.V. 10 mg/kg): 6590 ng/mL
Cmax Brain ([3]; P.O. 30 mg/kg): 14000 ng/mL
AUC ([3]; ip, I.P. 10 mg/kg): 1830 ng·h/mL
Cmax ([3]; ip, I.P. 10 mg/kg): 1440 ng/mL

Nc1ncccc1-c1ccc2[nH]ncc2c1 [Compound 9241, 3-(1H-Indazol-5-yl)pyridin-2-amine]
EC50 [1, 4]: 2100 nM

C=C(c1ccccc1)c1cccnc1N [Compound 9280]
EC50 [1, 4]: 2600 nM

CN(c1cccc(O)c1)c1cc(N)ccn1 [Compound 9448, 3-((4-Aminopyridin-2-yl)(methyl)amino)phenol]
EC50 [1, 4]: 2900 nM

Cc1cc(Nc2ccncc2)c2ccccc2n1 [Compound 9506, 2-methyl-N-(pyridin-4-yl)quinolin-4-amine]
functional classification (agonist / weak agonist) ([1]; Gi recruitment): weak agonist
EC50 [1, 7]: 950 nM

Cc1coc2ccc(C3=CCCNC3)cc12 [Compound 9677, 5-(3-Methylbenzofuran-5-yl)-1,2,3,6-tetrahydropyridine]
EC50 [1, 4]: 170 nM

C=C(c1ccccc1)c1c(F)ccnc1N [Compound 9689]
EC50 [1, 4]: 7300 nM

C1=C(c2ccc3c(c2)CCO3)CNCC1 [Compound 9700, 5-(2,3-Dihydrobenzofuran-5-yl)-1,2,3,6-tetrahydropyridine]
EC50 [1, 4]: 800 nM

Cc1cccc(N(C)c2ccc(N)nc2)c1 [Compound 9878, N^5-methyl-N^5-(m-tolyl)pyridine-2,5-diamine]
EC50 [1, 4]: 1100 nM

NC[C@H](O)c1ccc(O)c(O)c1 [NorEpi, norepinephrine, reference compound]
Emax (human α2AAR): 100%

COc1ccc2c(Nc3ccncc3)cccc2c1 [PS73]
EC50 [1, 7]: 50 nM

Cc1cc2c(Nc3ccncc3)cccc2cn1 [PS74]
functional classification (agonist / weak agonist) ([1]; Gi recruitment): agonist
EC50 [1, 7]: 450 nM

Fc1ccc2cncc(Nc3ccncc3)c2c1 [PS76]
functional classification (agonist / weak agonist) ([1]; Gi recruitment): agonist
EC50 [1, 7]: 89 nM

CN1CCc2c(Nc3ccncc3)cccc2C1=O [PS77]
functional classification (agonist / weak agonist) ([1]; Gi recruitment): agonist
EC50 [1, 7]: 1200 nM

CN1C(=O)CCc2c(Nc3ccncc3)cccc21 [PS78]
functional classification (agonist / weak agonist) ([1]; Gi recruitment): agonist
EC50 [1, 7]: 43 nM

COc1cccc2c(Nc3ccncc3)cncc12 [PS79]
functional classification (agonist / weak agonist) ([1]; Gi recruitment): agonist
EC50 [1, 7]: 100 nM

Fc1cccc2c(Nc3ccncc3)cncc12 [PS82]
functional classification (agonist / weak agonist) ([1]; Gi recruitment): agonist
EC50 [1, 7]: 230 nM

Oc1ccc2c(Nc3ccncc3)cccc2c1 [PS85]
functional classification (agonist / weak agonist) ([1]; Gi recruitment): agonist
EC50 [1, 7]: 87 nM

N#Cc1ccc(C2=CCCNC2)c2cccnc12 [PS-NN05]
Emax ([1]; Gi recruitment, Tables 7-9): < 5%
Emax ([2]; Tables 7-9): < 10%

C1=C(c2cccc3ncncc23)CNCC1 [PS-NN06]
Emax ([1]; Gi recruitment, Tables 7-9): < 10%
Emax ([2]; Tables 7-9): < 10%

Nc1ccc(-c2cc([N+](=O)[O-])c3[nH]ncc3c2)cn1 [TP70, 5-(7-Nitro-1H-indazol-5-yl)pyridin-2-amine]
EC50 [1, 4]: 3200 nM
Emax ([1]; Gi recruitment, Tables 7-9): -27%
Emax ([2]; Tables 7-9): < 10%

Nc1ccc(-c2cc(Cl)c3[nH]ncc3c2)cn1 [TP73, 5-(7-Chloro-1H-indazol-5-yl)pyridin-2-amine]
EC50 [1, 4]: 8700 nM
Emax ([1]; Gi recruitment, Tables 7-9): 27%
Emax ([2]; Tables 7-9): < 10%

Nc1ccc(-c2cc3cn[nH]c3cc2Cl)cn1 [TP74, 5-(6-Chloro-1H-indazol-5-yl)pyridin-2-amine]
EC50 [1, 4]: 200 nM
Emax ([1]; Gi recruitment, Tables 7-9): 64%
Emax ([2]; Tables 7-9): < 10%

Nc1ccc(-c2cc3cn[nH]c3cc2F)cn1 [TP75, 5-(6-Fluoro-1H-indazol-5-yl)pyridin-2-amine]
EC50 [1, 4]: 89 nM
Emax ([1]; Gi recruitment, Tables 7-9): 18%
Emax ([2]; Tables 7-9): < 10%

Nc1ccc(-c2cc3cn[nH]c3cc2[N+](=O)[O-])cn1 [TP78, 5-(6-Nitro-1H-indazol-5-yl)pyridin-2-amine]
EC50 [1, 4]: 910 nM
Emax ([1]; Gi recruitment, Tables 7-9): 51%
Emax ([2]; Tables 7-9): < 10%

COc1cc2[nH]ncc2cc1-c1ccc(N)nc1 [TP79, 5-(6-Methoxy-1H-indazol-5-yl)pyridin-2-amine]
Emax ([1]; Gi recruitment, Tables 7-9): < 6%
Emax ([2]; Tables 7-9): < 10%

O=C1CCc2ccc(C3=CCCNC3)cc21 [TP81]
EC50 [1, 4]: 3000 nM
Emax ([1]; Gi recruitment, Tables 7-9): 79%
Emax ([2]; Tables 7-9): < 10%

Nc1ccc(-c2ccc3[nH]ncc3c2F)cn1 [TP84, 5-(4-Fluoro-1H-indazol-5-yl)pyridin-2-amine]
EC50 [1, 4]: 1100 nM
Emax ([1]; Gi recruitment, Tables 7-9): 49%
Emax ([2]; Tables 7-9): < 10%

Nc1ccc(-c2ccc3[nH]ncc3c2Cl)cn1 [TP85, 5-(4-Chloro-1H-indazol-5-yl)pyridin-2-amine]
EC50 [1, 4]: 220 nM
Emax ([1]; Gi recruitment, Tables 7-9): 81%
Arrestin effect at 100 μM [2]: 34% at 100 μM

Nc1ccc(-c2cc(C(F)(F)F)c3[nH]ncc3c2)cn1 [TP87, 5-(7-(Trifluoromethyl)-1H-indazol-5-yl)pyridin-2-amine]
G protein effect at 100 μM ([1]; at 100 μM): 27% at 100 μM
Emax ([2]; Tables 7-9): < 10%

O=C1CCc2cc(C3=CCCNC3)ccc21 [TP90]
Emax ([1]; Gi recruitment, Tables 7-9): < 5%
Emax ([2]; Tables 7-9): < 5%
